system: Key Grass and Sedge Weeds as well as Grass Crops; assay: Post-Emergent Test II (Table 6); format: in vivo; details: post-emergence, 336 h, CYPSS, 140 g ai/ha, 14 days after application, read-out: Visual Growth Reduction (%) 14 Days After Application CYPSS
In short: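 Visual injury ratings (0 = no injury, 100 = complete kill) were taken 14 days after treatment relative to untreated plants. Seedlings at the first or second true leaf stage received an overhead spray at 187 L/ha, and solvent-blank sprayed plants served as controls.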

SMILES	pest or weed control at 140 g/ha
COC(=O)c1nc(-c2ccc(Br)nc2)c(F)c(N)c1Cl [Compound 22, methyl 4-amino-6′-bromo-5-chloro-3-fluoro-[2,3′-bipyridine]-6-carboxylate]	95 to 100%

same assay, conditions: post-emergence, 336 h, DIGSA: crabgrass (Digitaria sanguinalis), 70 g ai/ha, 14 days after application, read-out: Visual Growth Reduction (%) 14 Days After Application DIGSA

SMILES	pest or weed control at 70 g/ha
COC(=O)c1nc(-c2ccc(Br)nc2)c(F)c(N)c1Cl [Compound 22, methyl 4-amino-6′-bromo-5-chloro-3-fluoro-[2,3′-bipyridine]-6-carboxylate]	85 to 94%

same assay, conditions: post-emergence, 336 h, DIGSA: crabgrass (Digitaria sanguinalis), 140 g ai/ha, 14 days after application, read-out: Visual Growth Reduction (%) 14 Days After Application DIGSA

SMILES	pest or weed control at 140 g/ha
COC(=O)c1nc(-c2ccc(Br)nc2)c(F)c(N)c1Cl [Compound 22, methyl 4-amino-6′-bromo-5-chloro-3-fluoro-[2,3′-bipyridine]-6-carboxylate]	85 to 94%

same assay, conditions: post-emergence, 336 h, ECHSS, 70 g ai/ha, 14 days after application, read-out: Visual Growth Reduction (%) 14 Days After Application ECHSS

SMILES	pest or weed control at 70 g/ha
COC(=O)c1nc(-c2ccc(Br)nc2)c(F)c(N)c1Cl [Compound 22, methyl 4-amino-6′-bromo-5-chloro-3-fluoro-[2,3′-bipyridine]-6-carboxylate]	85 to 94%

same assay, conditions: post-emergence, 336 h, ECHSS, 140 g ai/ha, 14 days after application, read-out: Visual Growth Reduction (%) 14 Days After Application ECHSS

SMILES	pest or weed control at 140 g/ha
COC(=O)c1nc(-c2ccc(Br)nc2)c(F)c(N)c1Cl [Compound 22, methyl 4-amino-6′-bromo-5-chloro-3-fluoro-[2,3′-bipyridine]-6-carboxylate]	95 to 100%

same assay, conditions: post-emergence, 336 h, ORYSS (crop), 70 g ai/ha, 14 days after application, read-out: Visual Growth Reduction (%) 14 Days After Application ORYSS

SMILES	pest or weed control at 70 g/ha
COC(=O)c1nc(-c2ccc(Br)nc2)c(F)c(N)c1Cl [Compound 22, methyl 4-amino-6′-bromo-5-chloro-3-fluoro-[2,3′-bipyridine]-6-carboxylate]	30 to 44%

same assay, conditions: post-emergence, 336 h, ORYSS (crop), 140 g ai/ha, 14 days after application, read-out: Visual Growth Reduction (%) 14 Days After Application ORYSS

SMILES	pest or weed control at 140 g/ha
COC(=O)c1nc(-c2ccc(Br)nc2)c(F)c(N)c1Cl [Compound 22, methyl 4-amino-6′-bromo-5-chloro-3-fluoro-[2,3′-bipyridine]-6-carboxylate]	0 to 29%

same assay, conditions: post-emergence, 336 h, SETFA: giant foxtail (Setaria faberi), 70 g ai/ha, 14 days after application, read-out: Visual Growth Reduction (%) 14 Days After Application SETFA

SMILES	pest or weed control at 70 g/ha
COC(=O)c1nc(-c2ccc(Br)nc2)c(F)c(N)c1Cl [Compound 22, methyl 4-amino-6′-bromo-5-chloro-3-fluoro-[2,3′-bipyridine]-6-carboxylate]	85 to 94%

same assay, conditions: post-emergence, 336 h, SETFA: giant foxtail (Setaria faberi), 140 g ai/ha, 14 days after application, read-out: Visual Growth Reduction (%) 14 Days After Application SETFA

SMILES	pest or weed control at 140 g/ha
COC(=O)c1nc(-c2ccc(Br)nc2)c(F)c(N)c1Cl [Compound 22, methyl 4-amino-6′-bromo-5-chloro-3-fluoro-[2,3′-bipyridine]-6-carboxylate]	85 to 94%

same assay, conditions: post-emergence, 336 h, SORVU: grain sorghum (Sorghum vulgare), 70 g ai/ha, 14 days after application, read-out: Visual Growth Reduction (%) 14 Days After Application SORVU

SMILES	pest or weed control at 70 g/ha
COC(=O)c1nc(-c2ccc(Br)nc2)c(F)c(N)c1Cl [Compound 22, methyl 4-amino-6′-bromo-5-chloro-3-fluoro-[2,3′-bipyridine]-6-carboxylate]	95 to 100%

same assay, conditions: post-emergence, 336 h, SORVU: grain sorghum (Sorghum vulgare), 140 g ai/ha, 14 days after application, read-out: Visual Growth Reduction (%) 14 Days After Application SORVU

SMILES	pest or weed control at 140 g/ha
COC(=O)c1nc(-c2ccc(Br)nc2)c(F)c(N)c1Cl [Compound 22, methyl 4-amino-6′-bromo-5-chloro-3-fluoro-[2,3′-bipyridine]-6-carboxylate]	95 to 100%

same assay, conditions: post-emergence, 336 h, TRZSS (crop), 70 g ai/ha, 14 days after application, read-out: Visual Growth Reduction (%) 14 Days After Application TRZSS

SMILES	pest or weed control at 70 g/ha
COC(=O)c1nc(-c2ccc(Br)nc2)c(F)c(N)c1Cl [Compound 22, methyl 4-amino-6′-bromo-5-chloro-3-fluoro-[2,3′-bipyridine]-6-carboxylate]	85 to 94%

same assay, conditions: post-emergence, 336 h, TRZSS (crop), 140 g ai/ha, 14 days after application, read-out: Visual Growth Reduction (%) 14 Days After Application TRZSS

SMILES	pest or weed control at 140 g/ha
COC(=O)c1nc(-c2ccc(Br)nc2)c(F)c(N)c1Cl [Compound 22, methyl 4-amino-6′-bromo-5-chloro-3-fluoro-[2,3′-bipyridine]-6-carboxylate]	95 to 100%

same assay, conditions: post-emergence, 336 h, ZEAMX: maize, corn (Zea mays), 70 g ai/ha, 14 days after application, read-out: Visual Growth Reduction (%) 14 Days After Application ZEAMX

SMILES	pest or weed control at 70 g/ha
COC(=O)c1nc(-c2ccc(Br)nc2)c(F)c(N)c1Cl [Compound 22, methyl 4-amino-6′-bromo-5-chloro-3-fluoro-[2,3′-bipyridine]-6-carboxylate]	85 to 94%

same assay, conditions: post-emergence, 336 h, ZEAMX: maize, corn (Zea mays), 140 g ai/ha, 14 days after application, read-out: Visual Growth Reduction (%) 14 Days After Application ZEAMX

SMILES	pest or weed control at 140 g/ha
COC(=O)c1nc(-c2ccc(Br)nc2)c(F)c(N)c1Cl [Compound 22, methyl 4-amino-6′-bromo-5-chloro-3-fluoro-[2,3′-bipyridine]-6-carboxylate]	95 to 100%

Source: patent US10765114B2, “4-amino-6-(pyridyl and 2-substitutedphenyl)-picolinates and 6-amino-2-(pyridyl and 2-substitutedphenyl)-pyrimidine-4-carboxylates and their use as herbicides” (Dow AgroSciences LLC, priority 2013, dated 2020)
